Test results from patent US20260166039A1 (SCHRÖDINGER, INC., priority 2022, published 2026).

Key:
Wee1 kinase domain = target: T1, Wee1 kinase domain (Homo sapiens, UniProt P30291); experiment: Wee1 Kinase Biochemical Assay (ADP-Glo); conditions: Wee1 kinase domain, 15 uM ATP, ADP-Glo
T1 construct: Wee1 kinase domain was purchased from Carna (catalog #05-177); purchased Carna 05-177
Summary of the method: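 ADP-Glo detection of ADP produced after 4 h at 25° C by 1 nM Wee1 kinase domain on 2 ng/mL poly(Lys,Tyr 4:1) with 15 uM ATP. Buffer: 40 mM Tris-HCl, 20 mM MgCl2, 0.1 mg/mL BSA, 2 mM DTT. Inhibition is relative to DMSO (high) and saturating Wee1 inhibitor (low) controls.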

[1] = system: phosphorylation of Cdc2 Y15 (Wee1 substrate) in A427 cells; experiment: Phosphorylated Cdc2 MSD Electrochemiluminescence Assay; type: cell-based; conditions: Homo sapiens, A-427, pCDC2 MSD
Summary of the method: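 Read-out: percent residual phospho-Cdc2 Y15 relative to DMSO and positive-control Wee1 inhibitor, measured by MSD electrochemiluminescence capture/detection antibody assay in cell lysates. A427 cells received duplicate 3-fold compound dilution series 20 h post-seeding, with 6 h total incubation at 37 °C.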

T1 sequence (P30291 299-569 limits assumed): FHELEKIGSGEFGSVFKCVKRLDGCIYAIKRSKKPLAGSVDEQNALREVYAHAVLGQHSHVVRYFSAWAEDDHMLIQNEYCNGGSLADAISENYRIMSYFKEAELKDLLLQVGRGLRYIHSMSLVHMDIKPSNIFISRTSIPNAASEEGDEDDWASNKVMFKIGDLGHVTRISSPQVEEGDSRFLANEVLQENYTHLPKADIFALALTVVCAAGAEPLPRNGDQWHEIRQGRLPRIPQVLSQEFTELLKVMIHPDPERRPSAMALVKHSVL

Structure (SMILES)	IC50 (Wee1 kinase domain)	IC50 [1]
C[C@H]1COC(=O)N1c1cccc(N2c3nc(Nc4cnn(C5CCNCC5)c4)ncc3[C@@]3(C)COC(C)(C)C[C@@H]23)n1 (single isomer, unassigned) [Example 255]	< 10 nM	100 to 1000 nM
C[C@H]1COC(=O)N1c1cccc(N2c3nc(Nc4ccc(N5CCNCC5)cc4)ncc3[C@@]3(C)COC(C)(C)C[C@@H]23)n1 (single isomer, unassigned) [Example 260]	< 10 nM	100 to 1000 nM
C[C@H]1COC(=O)N1c1cccc(N2c3nc(Nc4ccc([C@H]5CCN(C)C5)nc4)ncc3[C@]3(C)COC(C)(C)C[C@H]23)n1 (single isomer, unassigned) [Example 262]	100 to 1000 nM	100 to 1000 nM
Cc1cc(Nc2ncc3c(n2)N(c2cccc(N4C(=O)OC[C@@H]4C)n2)[C@@H]2CC(C)(C)OC[C@]32C)ccc1[C@H]1CCNC1 (single isomer, unassigned) [Example 267]	< 10 nM	100 to 1000 nM
Cc1cc(Nc2ncc3c(n2)N(c2cccc(N4C(=O)OC[C@@H]4C)n2)[C@@H]2CC(C)(C)OC[C@]32C)ccc1[C@@H]1CCNC1 (single isomer, unassigned) [Example 269]	< 10 nM	100 to 1000 nM
C[C@H]1COC(=O)N1c1cccc(N2c3nc(Nc4ccc(N5CCN(C)CC5=O)cc4)ncc3[C@@]3(C)COC(C)(C)C[C@@H]23)n1 (single isomer, unassigned) [Example 271]	< 10 nM	100 to 1000 nM
C[C@H]1COC(=O)N1c1cccc(N2c3nc(Nc4ccc([C@@H]5CCNC5)cc4)ncc3[C@@]3(C)COC(C)(C)C[C@@H]23)n1 (single isomer, unassigned) [Example 275]	< 10 nM	100 to 1000 nM
C[C@H]1COC(=O)N1c1cccc(N2c3nc(Nc4ccc(O[C@@H]5CCN(C)C5)nc4)ncc3[C@@]3(C)COC(C)(C)C[C@@H]23)n1 (single isomer, unassigned) [Example 283]	< 10 nM	100 to 1000 nM
Cc1cc(Nc2ncc3c(n2)N(c2cccc(N4C(=O)OC[C@@H]4C)n2)[C@@H]2CC(C)(C)OC[C@]32C)ccc1N1C[C@H]2C[C@@H]1CN2C (single isomer, unassigned) [Example 289]	< 10 nM	100 to 1000 nM
C[C@H]1COC(=O)N1c1cccc(N2c3nc(Nc4ccc(N5C[C@H]6C[C@@H]5CN6C)c(F)c4)ncc3[C@@]3(C)COC(C)(C)C[C@@H]23)n1 (single isomer, unassigned) [Example 291]	< 10 nM	100 to 1000 nM
C[C@H]1COC(=O)N1c1cccc(N2c3nc(Nc4ccc(C5CCN(C)CC5)nc4)ncc3[C@@]3(C)COC(C)(C)C[C@@H]23)n1 (single isomer, unassigned) [Example 297]	< 10 nM	100 to 1000 nM
C[C@H]1COC(=O)N1c1cccc(N2c3nc(Nc4ccc([C@H]5CCN(C)C5)cc4)ncc3[C@@]3(C)COC(C)(C)C[C@@H]23)n1 (single isomer, unassigned) [Example 306]	< 10 nM	100 to 1000 nM
C[C@H]1COC(=O)N1c1cccc(N2c3nc(Nc4ccc(C5CNC5)cc4)ncc3[C@@]3(C)COC(C)(C)C[C@@H]23)n1 (single isomer, unassigned) [Example 310]	< 10 nM	100 to 1000 nM
CN[C@@H]1CCN(c2ccc(Nc3ncc4c(n3)N(c3cccc(N5C(=O)OC[C@@H]5C)n3)[C@@H]3CC(C)(C)OC[C@]43C)cc2)C1 (single isomer, unassigned) [Example 319]	< 10 nM	100 to 1000 nM
C[C@H]1COC(=O)N1c1cccc(N2c3nc(Nc4ccc(OC5CCNCC5)nc4)ncc3[C@@]3(C)COC(C)(C)C[C@@H]23)n1 (single isomer, unassigned) [Example 325]	< 10 nM	100 to 1000 nM

The next lines start with the values.

IC50 (Wee1 kinase domain)	IC50 [1]	Structure (SMILES)
< 10 nM	100 to 1000 nM	C[C@H]1COC(=O)N1c1cccc(N2c3nc(Nc4ccc([C@@H]5CCNC5)nc4)ncc3[C@@]3(C)COC(C)(C)C[C@@H]23)n1 (single isomer, unassigned) [Example 257]
< 10 nM	100 to 1000 nM	C[C@H]1COC(=O)N1c1cccc(N2c3nc(Nc4ccc([C@H]5CCNC5)nc4)ncc3[C@@]3(C)COC(C)(C)C[C@@H]23)n1 (single isomer, unassigned) [Example 259]
< 10 nM	< 100 nM	C[C@H]1COC(=O)N1c1cccc(N2c3nc(Nc4ccc([C@H]5CCN(C)C5)nc4)ncc3[C@@]3(C)COC(C)(C)C[C@@H]23)n1 (single isomer, unassigned) [Example 263]
10 to 100 nM	100 to 1000 nM	C[C@H]1COC(=O)N1c1cccc(N2c3nc(Nc4ccc([C@@H]5CCN(C)C5)nc4)ncc3[C@]3(C)COC(C)(C)C[C@H]23)n1 (single isomer, unassigned) [Example 264]
< 10 nM	< 100 nM	C[C@H]1COC(=O)N1c1cccc(N2c3nc(Nc4ccc([C@@H]5CCN(C)C5)nc4)ncc3[C@@]3(C)COC(C)(C)C[C@@H]23)n1 (single isomer, unassigned) [Example 265]
< 10 nM	100 to 1000 nM	C[C@H]1COC(=O)N1c1cccc(N2c3nc(Nc4ccn(C5CCN(C)CC5)c(=O)c4)ncc3[C@@]3(C)COC(C)(C)C[C@@H]23)n1 (single isomer, unassigned) [Example 273]
< 10 nM	100 to 1000 nM	C[C@H]1COC(=O)N1c1cccc(N2c3nc(Nc4ccc(N5C[C@H]6C[C@@H]5CN6)cc4)ncc3[C@@]3(C)COC(C)(C)C[C@@H]23)n1 (single isomer, unassigned) [Example 277]
< 10 nM	100 to 1000 nM	C[C@H]1COC(=O)N1c1cccc(N2c3nc(Nc4ccc([C@H]5CCNC5)cc4)ncc3[C@@]3(C)COC(C)(C)C[C@@H]23)n1 (single isomer, unassigned) [Example 279]
< 10 nM	100 to 1000 nM	C[C@H]1COC(=O)N1c1cccc(N2c3nc(Nc4ccc(O[C@H]5CCN(C)C5)nc4)ncc3[C@@]3(C)COC(C)(C)C[C@@H]23)n1 (single isomer, unassigned) [Example 281]
< 10 nM	100 to 1000 nM	C[C@H]1COC(=O)N1c1cccc(N2c3nc(Nc4ccc(O[C@H]5CCNC5)nc4)ncc3[C@@]3(C)COC(C)(C)C[C@@H]23)n1 (single isomer, unassigned) [Example 285]
< 10 nM	100 to 1000 nM	C[C@H]1COC(=O)N1c1cccc(N2c3nc(Nc4ccc(O[C@@H]5CCNC5)nc4)ncc3[C@@]3(C)COC(C)(C)C[C@@H]23)n1 (single isomer, unassigned) [Example 287]
< 10 nM	100 to 1000 nM	C[C@H]1COC(=O)N1c1cccc(N2c3nc(Nc4ccc(N5C[C@@H]6C[C@H]5CN6C)c(F)c4)ncc3[C@@]3(C)COC(C)(C)C[C@@H]23)n1 (single isomer, unassigned) [Example 293]
< 10 nM	100 to 1000 nM	Cc1cc(Nc2ncc3c(n2)N(c2cccc(N4C(=O)OC[C@@H]4C)n2)[C@@H]2CC(C)(C)OC[C@]32C)ccc1N1C[C@@H]2C[C@H]1CN2C (single isomer, unassigned) [Example 295]
< 10 nM	100 to 1000 nM	C[C@H]1COC(=O)N1c1cccc(N2c3nc(Nc4ccc(N5CCCN(C)CC5)cc4)ncc3[C@@]3(C)COC(C)(C)C[C@@H]23)n1 (single isomer, unassigned) [Example 299]
< 10 nM	1000 to 10000 nM	C[C@H]1COC(=O)N1c1cccc(N2c3nc(Nc4ccc(C(C)(C)C)nc4)ncc3[C@@]3(C)COC(C)(C)C[C@@H]23)n1 (single isomer, unassigned) [Example 301]
< 10 nM	100 to 1000 nM	C[C@H]1COC(=O)N1c1cccc(N2c3nc(Nc4ccc(C5(C)COC5)cc4)ncc3[C@@]3(C)COC(C)(C)C[C@@H]23)n1 (single isomer, unassigned) [Example 303]
< 10 nM	100 to 1000 nM	C[C@H]1COC(=O)N1c1cccc(N2c3nc(Nc4ccc([C@@H]5CCN(C)C5)cc4)ncc3[C@@]3(C)COC(C)(C)C[C@@H]23)n1 (single isomer, unassigned) [Example 305]
< 10 nM	100 to 1000 nM	C[C@H]1COC(=O)N1c1cccc(N2c3nc(Nc4ccc(C5CN(C)C5)cc4)ncc3[C@@]3(C)COC(C)(C)C[C@@H]23)n1 (single isomer, unassigned) [Example 311]
< 10 nM	100 to 1000 nM	C[C@@H]1CN(c2ccc(Nc3ncc4c(n3)N(c3cccc(N5C(=O)OC[C@@H]5C)n3)[C@@H]3CC(C)(C)OC[C@]43C)cc2)CCN1C (single isomer, unassigned) [Example 313]
< 10 nM	100 to 1000 nM	C[C@H]1CN(c2ccc(Nc3ncc4c(n3)N(c3cccc(N5C(=O)OC[C@@H]5C)n3)[C@@H]3CC(C)(C)OC[C@]43C)cc2)CCN1C (single isomer, unassigned) [Example 315]
< 10 nM	100 to 1000 nM	CN[C@H]1CCN(c2ccc(Nc3ncc4c(n3)N(c3cccc(N5C(=O)OC[C@@H]5C)n3)[C@@H]3CC(C)(C)OC[C@]43C)cc2)C1 (single isomer, unassigned) [Example 317]
< 10 nM	100 to 1000 nM	CN[C@@H](Cc1ccc(Nc2ncc3c(n2)N(c2cccc(N4C(=O)OC[C@@H]4C)n2)[C@@H]2CC(C)(C)OC[C@]32C)cc1)C(=O)O (single isomer, unassigned) [Example 321]
< 10 nM	100 to 1000 nM	CN[C@H](Cc1ccc(Nc2ncc3c(n2)N(c2cccc(N4C(=O)OC[C@@H]4C)n2)[C@@H]2CC(C)(C)OC[C@]32C)cc1)C(=O)O (single isomer, unassigned) [Example 323]
